Assay results taken from ChEMBL document CHEMBL1147578, “Design, synthesis, and SAR of anthranilamide-based factor Xa inhibitors with improved functional activity” (Bioorg Med Chem Lett, 2004).

Assays:
[1] = target: Vitamin K-dependent protein C (Homo sapiens, UniProt P04070); assay: Inhibitory activity against activated protein C
Coagulation factor X = Coagulation factor X (Homo sapiens, UniProt P00742); assay: In vitro inhibitory activity against coagulation factor X.
Plasminogen = Plasminogen (Homo sapiens, UniProt P00747); assay: Inhibitory activity against plasmin.
[2] = target: Tissue-type plasminogen activator (Homo sapiens, UniProt P00750); assay: Inhibitory activity against tissue type plasminogen activator.
Prothrombin = Prothrombin (Homo sapiens, UniProt P00734); assay: Inhibitory activity against thrombin.
Serine protease 1 = Serine protease 1 (Homo sapiens, UniProt P07477); assay: Inhibitory activity against trypsin.
Homo sapiens = species: Homo sapiens; assay: Concentration required to double the lag time of maximum thrombin generation in human plasma-based thrombin generation assay; type: functional

Chain of Vitamin K-dependent protein C (P04070 43-197 limits assumed): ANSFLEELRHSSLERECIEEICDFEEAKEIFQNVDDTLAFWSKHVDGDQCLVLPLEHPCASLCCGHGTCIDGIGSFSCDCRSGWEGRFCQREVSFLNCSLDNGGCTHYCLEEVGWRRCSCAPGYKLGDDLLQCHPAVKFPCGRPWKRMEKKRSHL
Chain of Vitamin K-dependent protein C (P04070 212-461 limits assumed): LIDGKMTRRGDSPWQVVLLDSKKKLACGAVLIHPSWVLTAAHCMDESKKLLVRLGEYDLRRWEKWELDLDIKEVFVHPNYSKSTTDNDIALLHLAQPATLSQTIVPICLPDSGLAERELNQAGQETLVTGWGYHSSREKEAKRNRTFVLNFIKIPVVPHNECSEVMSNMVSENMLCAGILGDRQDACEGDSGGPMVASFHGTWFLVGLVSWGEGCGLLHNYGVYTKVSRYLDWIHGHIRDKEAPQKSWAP
Chain of Coagulation factor X (P00742 41-179 limits assumed): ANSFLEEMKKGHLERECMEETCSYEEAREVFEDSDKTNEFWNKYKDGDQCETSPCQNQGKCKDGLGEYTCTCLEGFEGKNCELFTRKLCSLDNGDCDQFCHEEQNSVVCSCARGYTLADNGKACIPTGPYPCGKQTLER
Chain of Coagulation factor X (P00742 235-488 limits assumed): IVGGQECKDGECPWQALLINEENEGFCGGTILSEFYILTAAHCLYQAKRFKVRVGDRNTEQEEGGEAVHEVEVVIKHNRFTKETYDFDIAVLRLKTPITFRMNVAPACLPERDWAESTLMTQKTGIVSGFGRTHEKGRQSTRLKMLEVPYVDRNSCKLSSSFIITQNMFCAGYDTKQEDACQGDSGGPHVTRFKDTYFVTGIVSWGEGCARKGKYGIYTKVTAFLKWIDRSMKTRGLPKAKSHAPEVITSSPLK
Chain of Plasminogen (P00747 97-580 limits assumed): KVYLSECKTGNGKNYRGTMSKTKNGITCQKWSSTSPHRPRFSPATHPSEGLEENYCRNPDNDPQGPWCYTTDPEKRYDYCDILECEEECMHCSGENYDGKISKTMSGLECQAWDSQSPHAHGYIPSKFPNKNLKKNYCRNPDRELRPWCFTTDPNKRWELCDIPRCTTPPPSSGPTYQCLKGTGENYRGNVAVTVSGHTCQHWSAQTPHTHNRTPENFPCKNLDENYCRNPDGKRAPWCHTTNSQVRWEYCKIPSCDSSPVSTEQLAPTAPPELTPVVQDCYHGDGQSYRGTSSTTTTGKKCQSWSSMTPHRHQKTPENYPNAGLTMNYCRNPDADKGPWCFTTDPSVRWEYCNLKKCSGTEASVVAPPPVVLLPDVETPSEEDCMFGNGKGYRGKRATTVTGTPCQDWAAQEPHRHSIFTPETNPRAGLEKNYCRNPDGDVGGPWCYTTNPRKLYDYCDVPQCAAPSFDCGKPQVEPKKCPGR
Chain of Plasminogen (P00747 581-810 limits assumed): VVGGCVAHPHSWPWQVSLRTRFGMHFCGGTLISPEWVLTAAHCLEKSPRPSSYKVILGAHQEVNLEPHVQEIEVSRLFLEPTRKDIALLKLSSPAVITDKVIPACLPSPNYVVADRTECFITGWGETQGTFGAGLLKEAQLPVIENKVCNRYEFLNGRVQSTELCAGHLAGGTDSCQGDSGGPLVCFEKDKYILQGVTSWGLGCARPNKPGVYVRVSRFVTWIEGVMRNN
Chain of Serine protease 1 (P07477 whole entry): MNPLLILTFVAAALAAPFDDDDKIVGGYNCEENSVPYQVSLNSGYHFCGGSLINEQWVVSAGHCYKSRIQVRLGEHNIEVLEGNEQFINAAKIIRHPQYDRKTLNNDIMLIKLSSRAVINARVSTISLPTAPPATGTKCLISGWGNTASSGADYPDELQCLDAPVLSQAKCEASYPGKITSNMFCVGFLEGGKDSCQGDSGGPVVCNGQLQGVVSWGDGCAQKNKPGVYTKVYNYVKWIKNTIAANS
Chain of Tissue-type plasminogen activator (P00750 whole entry): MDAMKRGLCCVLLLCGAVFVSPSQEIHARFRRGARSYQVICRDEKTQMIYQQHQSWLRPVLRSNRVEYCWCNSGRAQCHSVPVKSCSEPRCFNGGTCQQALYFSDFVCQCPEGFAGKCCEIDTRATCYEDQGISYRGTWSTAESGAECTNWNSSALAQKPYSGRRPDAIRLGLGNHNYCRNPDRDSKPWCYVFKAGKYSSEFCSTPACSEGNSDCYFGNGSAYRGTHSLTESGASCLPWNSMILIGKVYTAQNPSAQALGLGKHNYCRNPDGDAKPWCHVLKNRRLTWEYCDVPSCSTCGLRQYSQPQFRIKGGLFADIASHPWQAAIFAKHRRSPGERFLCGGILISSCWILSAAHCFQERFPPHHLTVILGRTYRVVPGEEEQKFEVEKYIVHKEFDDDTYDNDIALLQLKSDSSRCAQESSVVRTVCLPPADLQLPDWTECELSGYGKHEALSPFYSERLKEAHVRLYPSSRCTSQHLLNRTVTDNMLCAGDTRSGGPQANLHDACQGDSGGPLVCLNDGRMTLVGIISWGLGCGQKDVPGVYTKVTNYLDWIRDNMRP

Structure (SMILES) | IC50 [1] [µM] | IC50 (Coagulation factor X) [µM] | IC50 (Plasminogen) [µM] | IC50 [2] [µM] | IC50 (Prothrombin) [µM] | IC50 (Serine protease 1) [µM] | Activity (Homo sapiens) [µM]
CN(C)CCN(C)Cc1ccc(C(=O)Nc2ccc(Cl)cc2C(=O)Nc2ccc(Cl)cn2)cc1 | > 11 | 0.0069 | > 11 | > 11 | > 11 | > 11 | 
O=C(Nc1ccc(Cl)cc1C(=O)Nc1ccc(Cl)cn1)c1ccc(C[n+]2ccccc2)cc1 | > 11 | 0.0058 | > 11 | > 11 | > 11 | > 11 | 
O=C(Nc1ccc(Cl)cc1C(=O)Nc1ccc(Cl)cn1)c1ccc(CN2CCC(C(=O)O)CC2)cc1 | > 11 | 0.23 | > 11 | > 11 | > 11 | > 11 | 
NC1=NCCCCN1Cc1ccc(C(=O)Nc2ccc(Cl)cc2C(=O)Nc2ccc(Cl)cn2)cc1 | > 11 | 0.0063 | > 11 | > 11 | > 11 | > 11 | 
O=C(Nc1ccc(Cl)cc1C(=O)Nc1ccc(Cl)cn1)c1ccc(CN2CCC(O)CC2)cc1 | > 11 | 0.136 | > 11 | > 11 | > 11 | > 11 | 
CC(=N)N(C)CCN(C)Cc1ccc(C(=O)Nc2ccc(Cl)cc2C(=O)Nc2ccc(Cl)cn2)cc1 | > 11 | 0.0011 | > 11 | > 11 | > 11 | > 11 | 
CCN(CC)Cc1ccc(C(=O)Nc2ccc(Cl)cc2C(=O)Nc2ccc(Cl)cn2)cc1 | > 11 | 0.035 | > 11 | > 11 | > 11 | > 11 | 
NCc1ccc(C(=O)Nc2ccc(Cl)cc2C(=O)Nc2ccc(Cl)cn2)cc1 | > 11 | 0.01 | > 11 | > 11 | > 11 | > 11 | 
CNCCN(C)Cc1ccc(C(=O)Nc2ccc(Cl)cc2C(=O)Nc2ccc(Cl)cn2)cc1 | > 11 | 0.0068 | > 11 | > 11 | > 11 | > 11 | 
O=C(Nc1ccc(Cl)cc1C(=O)Nc1ccc(Cl)cn1)c1ccc(CN2CCNCC2)cc1 | > 11 | 0.017 | > 11 | > 11 | > 11 | > 11 | 
NC1=NCCCN1Cc1ccc(C(=O)Nc2ccc(Cl)cc2C(=O)Nc2ccc(Cl)cn2)cc1 | > 11 | 0.0038 | > 11 | > 11 | > 11 | > 11 | 
O=C(Nc1ccc(Cl)cc1C(=O)Nc1ccc(Cl)cn1)c1ccc(CN2CCNC2=O)cc1 | > 11 | 0.03 | > 11 | > 11 | > 11 | > 11 | 
CCOC(=O)CN(C)Cc1ccc(C(=O)Nc2ccc(Cl)cc2C(=O)Nc2ccc(Cl)cn2)cc1 | > 11 | 0.176 | > 11 | > 11 | > 11 | > 11 | 
CN(CC(=O)O)Cc1ccc(C(=O)Nc2ccc(Cl)cc2C(=O)Nc2ccc(Cl)cn2)cc1 | > 11 | 0.156 | > 11 | > 11 | > 11 | > 11 | 
O=C(Nc1ccc(Cl)cc1C(=O)Nc1ccc(Cl)cn1)c1ccc(CN2CCCC2=O)cc1 | > 11 | 0.552 | > 11 | > 11 | > 11 | > 11 | 
CC(=N)N1CCN(Cc2ccc(C(=O)Nc3ccc(Cl)cc3C(=O)Nc3ccc(Cl)cn3)cc2)CC1 | > 11 | 0.005 | > 11 | > 11 | > 11 | > 11 | 
CN1CCN(Cc2ccc(C(=O)Nc3ccc(Cl)cc3C(=O)Nc3ccc(Cl)cn3)cc2)CC1 | > 11 | 0.015 | > 11 | > 11 | > 11 | > 11 | 
COCCN(C)Cc1ccc(C(=O)Nc2ccc(Cl)cc2C(=O)Nc2ccc(Cl)cn2)cc1 | > 11 | 0.053 | > 11 | > 11 | > 11 | > 11 | 
NNCc1ccc(C(=O)Nc2ccc(Cl)cc2C(=O)Nc2ccc(Cl)cn2)cc1 | > 11 | 0.04 | > 11 | > 11 | > 11 | > 11 | 
CN(Cc1ccc(C(=O)Nc2ccc(Cl)cc2C(=O)Nc2ccc(Cl)cn2)cc1)C1=NCCS1 | > 11 | 0.01 | > 11 | > 11 | > 11 | > 11 | 
CN(CCO)Cc1ccc(C(=O)Nc2ccc(Cl)cc2C(=O)Nc2ccc(Cl)cn2)cc1 | > 11 | 0.082 | > 11 | > 11 | > 11 | > 11 | 

Structure (SMILES) | IC50 [1] [µM] | IC50 (Coagulation factor X) [µM] | IC50 (Plasminogen) [µM] | IC50 [2] [µM] | IC50 (Prothrombin) [µM] | IC50 (Serine protease 1) [µM] | Activity (Homo sapiens) [µM]
CN(CCN(C)C(=N)N)Cc1ccc(C(=O)Nc2ccc(Cl)cc2C(=O)Nc2ccc(Cl)cn2)cc1 | > 11 | 0.002 | > 11 | > 11 | > 11 | > 11 | 
N=C(N)NCc1ccc(C(=O)Nc2ccc(Cl)cc2C(=O)Nc2ccc(Cl)cn2)cc1 | > 11 | 0.0014 | > 11 | > 11 | > 11 | > 11 | 
CN(Cc1ccc(C(=O)Nc2ccc(Cl)cc2C(=O)Nc2ccc(Cl)cn2)cc1)C1=NCCN1 | > 11 | 0.002 | > 11 | > 11 | > 11 | > 11 | 
CN(Cc1ccc(C(=O)Nc2ccc(Cl)cc2C(=O)Nc2ccc(Cl)cn2)cc1)C1=NCCO1 | > 11 | 0.0015 | > 11 | > 11 | > 11 | > 11 | 
CCOC(=O)C1CCN(Cc2ccc(C(=O)Nc3ccc(Cl)cc3C(=O)Nc3ccc(Cl)cn3)cc2)CC1 | > 11 | 0.171 | > 11 | > 11 | > 11 | > 11 | 
NC(=O)C1CCN(Cc2ccc(C(=O)Nc3ccc(Cl)cc3C(=O)Nc3ccc(Cl)cn3)cc2)CC1 | > 11 | 0.076 | > 11 | > 11 | > 11 | > 11 | 
NC1CCN(Cc2ccc(C(=O)Nc3ccc(Cl)cc3C(=O)Nc3ccc(Cl)cn3)cc2)CC1 | > 11 | 0.015 | > 11 | > 11 | > 11 | > 11 | 
NCc1ccccc1-c1ccc(C(=O)Nc2ccc(Cl)cc2C(=O)Nc2ccc(Cl)cn2)cc1 |  | 0.0013 |  |  |  |  | >5
CN(Cc1ccc(C(=O)Nc2ccc(Cl)cc2C(=O)Nc2ccc(Cl)cn2)cc1)C(=N)c1ccccc1 | > 11 | 0.011 | > 11 | > 11 | > 11 | > 11 | 
O=C(Nc1ccc(Cl)cc1C(=O)Nc1ccc(Cl)cn1)c1ccc(CN2CCN=C2S)cc1 | > 11 | 0.035 | > 11 | > 11 | > 11 | > 11 | 
CNC1=NCCN1Cc1ccc(C(=O)Nc2ccc(Cl)cc2C(=O)Nc2ccc(Cl)cn2)cc1 | > 11 | 0.0035 | > 11 | > 11 | > 11 | > 11 | 
O=C(Nc1ccc(Cl)cc1C(=O)Nc1ccc(Cl)cn1)c1ccc(CN2CCCCC2)cc1 | > 11 | 0.015 | > 11 | > 11 | > 11 | > 11 | 
O=C(Nc1ccc(Cl)cc1C(=O)Nc1ccc(Cl)cn1)c1ccc(CN2CCOCC2)cc1 | > 11 | 0.14 | > 11 | > 11 | > 11 | > 11 | 
CC(=O)NNCc1ccc(C(=O)Nc2ccc(Cl)cc2C(=O)Nc2ccc(Cl)cn2)cc1 | > 11 | 0.04 | > 11 | > 11 | > 11 | > 11 | 
CC(=N)NCc1ccc(C(=O)Nc2ccc(Cl)cc2C(=O)Nc2ccc(Cl)cn2)cc1 | > 11 | 0.0036 | > 11 | > 11 | > 11 | > 11 | 
CN(C)C1=NCCN1Cc1ccc(C(=O)Nc2ccc(Cl)cc2C(=O)Nc2ccc(Cl)cn2)cc1 | > 11 | 0.0013 | > 11 | > 11 | > 11 | > 11 | 
CCN(C)Cc1ccc(C(=O)Nc2ccc(Cl)cc2C(=O)Nc2ccc(Cl)cn2)cc1 | > 11 | 0.012 | > 11 | > 11 | > 11 | > 11 | 
CNCc1ccc(C(=O)Nc2ccc(Cl)cc2C(=O)Nc2ccc(Cl)cn2)cc1 | > 11 | 0.007 | > 11 | > 11 | > 11 | > 11 | 
O=C(Nc1ccc(Cl)cc1C(=O)Nc1ccc(Cl)cn1)c1ccc(CN2CCCC2)cc1 | > 11 | 0.016 | > 11 | > 11 | > 11 | > 11 | 
C[N+]1(Cc2ccc(C(=O)Nc3ccc(Cl)cc3C(=O)Nc3ccc(Cl)cn3)cc2)CCCC1 | > 11 | 0.0023 | > 11 | > 11 | > 11 | > 11 | 
C/N=C(/NC)N(C)Cc1ccc(C(=O)Nc2ccc(Cl)cc2C(=O)Nc2ccc(Cl)cn2)cc1 | > 11 | 0.0008 | > 11 | > 11 | > 11 | > 11 | 
